Tests used:
[1] = target: T1, Recombinant human protein tyrosine phosphatase 1B (Homo sapiens, UniProt P18031); assay: Protein tyrosine phosphatase 1B inhibitory activity (malachite green, phosphorylated insulin receptor peptide substrate); format: biochemical; details: recombinant human PTP1B, 60 min room temperature, absorbance 650 nm
T1 construct: purchased UBI
T1 sequence (P18031 1-435): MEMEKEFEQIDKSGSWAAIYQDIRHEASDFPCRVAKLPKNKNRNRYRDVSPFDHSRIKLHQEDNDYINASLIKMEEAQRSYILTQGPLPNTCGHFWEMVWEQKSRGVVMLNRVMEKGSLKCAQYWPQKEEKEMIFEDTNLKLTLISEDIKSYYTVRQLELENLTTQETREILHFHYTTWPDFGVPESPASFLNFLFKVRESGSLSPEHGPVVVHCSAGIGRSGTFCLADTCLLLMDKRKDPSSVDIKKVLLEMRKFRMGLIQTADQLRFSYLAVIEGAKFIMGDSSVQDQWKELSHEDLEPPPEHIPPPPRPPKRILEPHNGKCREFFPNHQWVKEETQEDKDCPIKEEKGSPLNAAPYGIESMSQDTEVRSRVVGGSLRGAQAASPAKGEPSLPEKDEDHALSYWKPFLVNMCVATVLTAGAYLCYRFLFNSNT
Description: Preparation of Assay Buffer:
A 50 mM Tris-HCl buffer (pH 7.5), 50 mM NaCl and 3 mM dithiothreitol (DTT) were prepared.
[…] 0.1, 0.3, 1, 3 and 10 μM of the test compound were prepared and diluted with the above-mentioned assay buffer to the final dimethyl sulfoxide (DMSO) concentration of not more than 1%. As the control, the assay buffer was used.
Preparation of Substrate:
Recombinant human protein tyrosine phosphatase 1B (manufactured by UBI) was diluted with the above-mentioned assay buffer (1.2 ng/25 μl).
The sample (10 μl) prepared as mentioned above and a substrate (25 μl) were successively added to a 96 well plate, and the enzyme (25 μl) prepared as mentioned above was added and mixed. The mixture was incubated at room temperature for 60 min and a malachite green (120 μl, Biomol), which is a color reagent, was added. The mixture was further incubated at room temperature for 20 min to allow for color development. An absorbance at 650 nm was measured on a plate reader based on which the protein tyrosine phosphatase 1B inhibitory activity of the test compound was evaluated.

melting point | IC50 [1] | SMILES
137.5 to 141.5 °C | 0.17 µM | CCCC(CCC)c1ccc(OCc2ccc(-c3csc(CN(CC(=O)O)Cc4nc5ccccc5n4C)c3)cc2)cc1.O=S(=O)(O)O [Example 4-55]
172 to 174 °C | 0.12 µM | CCCC(CCC)c1ccc(OCc2ccc(-c3ccc(CN(CC(=O)O)CC(=O)Nc4ccc(C(C)C)cc4)s3)cc2)cc1 [Example 4-9]
199 to 200 °C | 0.17 µM | CCCC(CCC)c1ccc(Cn2cc(-c3csc(COc4ccc(C(=O)O)cc4)n3)c3ccccc32)cc1 [Example 1-157]
92.6 to 94.7 °C | < 0.1 µM | CCCC(CCC)c1ccc(OCc2ccc(-c3ccc(CN(CC(=O)O)Cc4cc(C(F)(F)F)ccc4Cl)s3)cc2)cc1 [Example 4-75]
128 to 131 °C | 0.45 µM | CCN(Cc1ccc(C2CCCCC2)cc1)c1ccc(-c2ccc(CN(CC(=O)O)Cc3ccccn3)s2)cc1 [Example 4-66]
135.2 to 136 °C | 0.49 µM | CCCC(CCC)c1ccc(OCc2ccc(-c3csc(CN(CC(=O)O)Cc4nccn4Cc4ccccc4)c3)cc2)cc1 [Example 4-89]
141.2 to 144.1 °C | 0.16 µM | C=CCn1c(CN(CC(=O)O)Cc2ccc(-c3ccc(COc4ccc(C(CCC)CCC)cc4)cc3)s2)nc2ccccc21 [Example 4-106]
161 to 164.3 °C | 0.42 µM | Cl.O=C(O)CN(Cc1ccccc1)Cc1ccc(-c2cn(Cc3ccc(C4CCCCC4)cc3)c3ccccc23)s1 [Example 4-63]
195.7 to 196.8 °C | 0.4 µM | CCCC(CCC)c1ccc(OCc2ccc(-c3ccc(CN(CC(=O)O)Cc4ccc(OC)cc4)s3)cc2)cc1 [Example 4-77]
203.8 to 206.2 °C | < 0.1 µM | CCCC(CCC)c1ccc(OCc2ccc(-c3csc(CN(CC(=O)O)Cc4ccc(-c5cccs5)s4)c3)cc2)cc1 [Example 4-93]
242.4 to 265.9 °C | 0.11 µM | C[C@H]1CC[C@H](c2ccc(COc3ccc(-c4ccc(CN5CCN(c6ccc(C(=O)O)cc6)CC5)s4)cc3)cc2)CC1 [Example 4-74]
167.5 to 169.9 °C | 0.17 µM | CCCC(CCC)c1ccc(OCc2ccc(-c3csc(CN(CC(=O)O)Cc4ccc(-n5ccnc5)cc4)c3)cc2)cc1 [Example 4-91]

The remaining lines, values behind:

SMILES | melting point | IC50 [1]
CCCC(CCC)c1ccc(OCc2ccc(-c3csc(CSc4ccc(C(=O)O)cc4)c3)cc2)cc1 [Example 4-60] | 133.9 to 135.1 °C | < 0.1 µM
CCCC(CCC)c1ccc(OCc2ccc(-c3csc(CN(CC(=O)O)C(=O)COc4ccc(C(C)C)cc4)c3)cc2)cc1 [Example 4-69] | 146 to 152 °C | 0.15 µM
CCCC(CCC)c1ccc(OCc2ccc(-c3csc(CN(CC(=O)O)Cc4nc5ccccc5n4C)c3)cc2)cc1.Cl [Example 4-54] | 165.7 to 166.8 °C | 0.14 µM
CN(Cc1ccc([C@H]2CC[C@H](C)CC2)cc1)c1ccc(-c2csc(CN3Cc4ccccc4CC3C(=O)O)n2)cc1 (some centres unmarked) [Example 3-71] | 202 to 205 °C | 0.095 µM
CCCC(CCC)c1ccc(OCc2ccc(-c3csc(CN(CC(=O)O)C(=O)c4ccc(C(C)C)cc4)c3)cc2)cc1 [Example 4-70] | 109 to 111 °C | 0.17 µM
CCCC(CCC)c1ccc(OCc2ccc(-c3ccc(CN(CC(=O)OCC)CC(=O)c4ccc(N5CCCC5)cc4)s3)cc2)cc1.Cl [Example 4-82] | 75.3 to 79.3 °C | 0.48 µM
CCCC(CCC)c1ccc(OCc2ccc(-c3csc(CN(CC(=O)O)S(=O)(=O)N(C)c4ccccc4)c3)cc2)cc1 [Example 4-64] | 139 to 140.2 °C | 0.24 µM
CCN(Cc1ccc(C2CCCCC2)cc1)c1ccc(-c2ccc(CN(CCOc3ccccc3)CC(=O)O)s2)cc1 [Example 4-67] | 141 to 144 °C | 0.23 µM
CCCC(CCC)c1ccc(OCc2ccc(-c3csc(CN(CC(=O)O)Cc4ccc5[nH]ccc5n4)c3)cc2)cc1 [Example 4-90] | 203.4 to 205.3 °C | 0.16 µM
CCCC(CCC)c1ccc(OCc2ccc(-c3csc(Cn4nc(C(=O)O)cc4C(C)(C)C)n3)cc2)cc1 [Example 1-178] | 195 to 196.5 °C | 0.44 µM
CCCC(CCC)c1ccc(OCc2ccc(-c3ccc(CN(CC(=O)O)Cc4cc(-c5ccccc5)cs4)s3)cc2)cc1 [Example 4-98] | 181.4 to 184.5 °C | < 0.1 µM
CCCC(CCC)c1ccc(OCc2ccc(-c3ccc(CN(CC(=O)O)Cc4ccc(SC)cc4)s3)cc2)cc1 [Example 4-78] | 202.7 to 204.3 °C | 0.38 µM
CCCC(CCC)c1ccc2c(c1)nc(-c1csc(COc3ccc(C(=O)O)cc3)n1)n2Cc1ccc(C(C)C)cc1 [Example 1-158] | 147 to 152 °C | 0.29 µM
CN(Cc1ccc([C@H]2CC[C@H](C)CC2)cc1)c1ccc(-c2csc(CN3CCC(C(=O)O)(c4ccccc4)CC3)n2)cc1 [Example 3-69] | 229 to 231 °C | 0.16 µM
CCCC(CCC)c1ccc(OCc2ccc(-c3ccc(C(=O)N(CC(=O)O)Cc4ccc(N(C)C)cc4)s3)cc2)cc1 [Example 4-45] | 137 to 139 °C | 0.27 µM
CCCC(CCC)c1ccc(OCc2ccc(-c3ccc(CN(CC(=O)O)S(=O)(=O)c4ccc(Cl)s4)s3)cc2)cc1 [Example 4-100] | 151.2 to 154.4 °C | < 0.1 µM
CCCC(CCC)c1ccc(Cn2cc(-c3csc(CN4CCN(c5cccc(C(=O)O)c5)CC4)n3)c3ccccc32)cc1 [Example 1-172] | 107 to 110 °C | 0.28 µM
CCCC(CCC)c1ccc(OCc2cccc(-c3csc(CN4CCc5ccc(C(=O)O)cc5C4)c3)c2)cc1 [Example 4-73] | 69.4 to 78.3 °C | 0.19 µM
CCCC(CCC)c1ccc(OCc2ccc(-c3ccc(CN(CC(=O)O)c4nc(-c5ccc(Cl)cc5)cs4)s3)cc2)cc1 [Example 4-107] | 116 to 117.6 °C | < 0.1 µM
CCN(C[C@H]1CC[C@H](c2ccc(C(C)(C)C)cc2)CC1)c1ccc(-c2csc(CN3CCC(c4ccc(C(=O)O)cc4)CC3)c2)cc1 [Example 4-68] | 225 to 229 °C (dec.) | < 0.1 µM
CCCC(CCC)c1ccc(OCc2ccc(-c3ccc(CN(CC(=O)O)Cc4c[nH]nc4-c4ccccc4)s3)cc2)cc1 [Example 4-95] | 145.9 to 149.3 °C | 0.28 µM
CCCC(CCC)c1ccc(OCc2ccc(-c3csc(CN(CC(=O)O)Cc4nc5ccccc5s4)c3)cc2)cc1 [Example 4-88] | 150.9 to 152.8 °C | < 0.1 µM
C[C@H]1CC[C@H](c2ccc(COc3ccc(-c4ccc(CN(CC5CCCCC5)S(=O)(=O)c5ccc(C(=O)O)cc5)s4)cc3)cc2)CC1 [Example 4-79] | 234 to 241.8 °C | < 0.1 µM
CCCC(CCC)c1ccc(OCc2ccc(-c3csc(CN(CC(=O)O)Cc4nc5ccccc5[nH]4)c3)cc2)cc1 [Example 4-6] | 153 to 155 °C | 0.092 µM
CCCC(CCC)c1ccc(Cn2cc(-c3csc(Cn4cc(C(=O)O)c5ccccc54)n3)c3ccccc32)cc1 [Example 1-182] | 148 to 152 °C | 0.19 µM

— US20060122181A1, “Heteroaromatic pentacyclic compound and medicinal use thereof” (Japan Tobacco Inc., priority 2003, published 2006)
